Laboratory results published in article PMC8160875 (Molecules, 2021).

How the values were obtained:
H1975 cells = test: MTT cytotoxicity assay, H1975; assay type: cell-based; settings: Homo sapiens, NCI-H1975, H1975 cell line, average of three determinations
Excerpt: (§1) Four human tumor cell lines (A549, H1975, NCI-H460, and MCF-7) and human normal cell line LO2 were selected to evaluate the antiproliferative activity of all target compounds in vitro. Olmutinib was used as a positive control. Results are summarized in Table 1, where the values are the average of at least three independent experiments. […] However, the antiproliferative activities of the compounds that were substituted with the anisidine side chain performed better than the cyano group chain.

MCF-7 cells = test: MTT cytotoxicity assay, MCF-7; assay type: cell-based; settings: Homo sapiens, MCF7, MCF-7 cell line, average of three determinations
Excerpt: as §1

NCI-H460 cells = test: MTT cytotoxicity assay, NCI-H460; assay type: cell-based; settings: Homo sapiens, NCI-H460 cell line, average of three determinations
Excerpt: as §1

A549 cells = test: MTT cytotoxicity assay, A549; assay type: cell-based; settings: Homo sapiens, A549 cell line, average of three determinations
Excerpt: as §1

LO2 cells = test: MTT cytotoxicity assay, normal cell line LO2; assay type: cell-based, human; settings: for IC50: L02, human normal cell line LO2, MTT, average of three determinations; for Selectivity IC50(LO2)/IC50(A549): ratio IC50(LO2)/IC50(A549)
Excerpt: as §1

PI3Kα = PI3Kα (Homo sapiens, UniProt P42336); test: Kinase-Glo Luminescent Kinase Assay, PI3Kα; assay type: biochemical; settings: average of three determinations
Description: Compounds H7 and H10 had excellent antiproliferative activity and were further screened out for kinase inhibition testing. We evaluated compounds H7 and H10 with EGFR^T790M/L858R kinases and PI3Kα kinases.
The specific operation was carried out according to our previous research.

EGFR^T790M/L858R = EGFR^T790M/L858R (Homo sapiens, UniProt P00533, L858R/T790M); test: Kinase-Glo Luminescent Kinase Assay, EGFR T790M/L858R; assay type: biochemical; settings: average of three determinations
Sequence of EGFR^T790M/L858R (P00533 25-1210 T790M/L858R): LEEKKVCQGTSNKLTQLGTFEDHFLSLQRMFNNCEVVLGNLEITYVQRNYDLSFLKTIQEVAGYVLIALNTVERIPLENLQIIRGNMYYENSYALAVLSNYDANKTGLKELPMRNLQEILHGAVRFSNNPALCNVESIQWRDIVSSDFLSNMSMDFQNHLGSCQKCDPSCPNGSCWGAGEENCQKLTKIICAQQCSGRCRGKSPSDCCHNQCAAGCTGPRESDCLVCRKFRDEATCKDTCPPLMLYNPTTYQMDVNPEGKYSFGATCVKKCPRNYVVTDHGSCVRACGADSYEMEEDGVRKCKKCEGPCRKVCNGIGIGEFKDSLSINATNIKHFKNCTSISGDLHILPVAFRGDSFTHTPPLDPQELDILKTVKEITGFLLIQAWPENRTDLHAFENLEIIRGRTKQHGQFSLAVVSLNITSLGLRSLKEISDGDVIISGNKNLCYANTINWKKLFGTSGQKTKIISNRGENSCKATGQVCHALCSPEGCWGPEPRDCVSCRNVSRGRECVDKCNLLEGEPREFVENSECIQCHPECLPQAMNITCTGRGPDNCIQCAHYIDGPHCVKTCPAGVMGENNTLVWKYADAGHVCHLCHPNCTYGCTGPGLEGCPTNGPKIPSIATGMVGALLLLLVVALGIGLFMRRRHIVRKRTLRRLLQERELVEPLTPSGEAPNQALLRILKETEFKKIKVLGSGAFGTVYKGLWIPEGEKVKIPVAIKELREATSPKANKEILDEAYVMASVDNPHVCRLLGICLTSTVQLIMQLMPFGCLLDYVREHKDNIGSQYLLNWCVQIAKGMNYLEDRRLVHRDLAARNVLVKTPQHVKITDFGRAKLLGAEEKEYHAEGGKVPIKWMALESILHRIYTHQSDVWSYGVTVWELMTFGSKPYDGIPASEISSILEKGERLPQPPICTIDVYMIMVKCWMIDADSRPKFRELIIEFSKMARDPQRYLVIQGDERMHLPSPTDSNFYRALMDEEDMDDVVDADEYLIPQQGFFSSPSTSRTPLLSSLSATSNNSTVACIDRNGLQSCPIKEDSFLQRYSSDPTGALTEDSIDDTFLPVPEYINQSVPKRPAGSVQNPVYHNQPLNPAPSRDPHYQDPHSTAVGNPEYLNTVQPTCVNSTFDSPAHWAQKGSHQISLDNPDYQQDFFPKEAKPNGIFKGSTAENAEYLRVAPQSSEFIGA

Sequence of PI3Kα (P42336 whole entry): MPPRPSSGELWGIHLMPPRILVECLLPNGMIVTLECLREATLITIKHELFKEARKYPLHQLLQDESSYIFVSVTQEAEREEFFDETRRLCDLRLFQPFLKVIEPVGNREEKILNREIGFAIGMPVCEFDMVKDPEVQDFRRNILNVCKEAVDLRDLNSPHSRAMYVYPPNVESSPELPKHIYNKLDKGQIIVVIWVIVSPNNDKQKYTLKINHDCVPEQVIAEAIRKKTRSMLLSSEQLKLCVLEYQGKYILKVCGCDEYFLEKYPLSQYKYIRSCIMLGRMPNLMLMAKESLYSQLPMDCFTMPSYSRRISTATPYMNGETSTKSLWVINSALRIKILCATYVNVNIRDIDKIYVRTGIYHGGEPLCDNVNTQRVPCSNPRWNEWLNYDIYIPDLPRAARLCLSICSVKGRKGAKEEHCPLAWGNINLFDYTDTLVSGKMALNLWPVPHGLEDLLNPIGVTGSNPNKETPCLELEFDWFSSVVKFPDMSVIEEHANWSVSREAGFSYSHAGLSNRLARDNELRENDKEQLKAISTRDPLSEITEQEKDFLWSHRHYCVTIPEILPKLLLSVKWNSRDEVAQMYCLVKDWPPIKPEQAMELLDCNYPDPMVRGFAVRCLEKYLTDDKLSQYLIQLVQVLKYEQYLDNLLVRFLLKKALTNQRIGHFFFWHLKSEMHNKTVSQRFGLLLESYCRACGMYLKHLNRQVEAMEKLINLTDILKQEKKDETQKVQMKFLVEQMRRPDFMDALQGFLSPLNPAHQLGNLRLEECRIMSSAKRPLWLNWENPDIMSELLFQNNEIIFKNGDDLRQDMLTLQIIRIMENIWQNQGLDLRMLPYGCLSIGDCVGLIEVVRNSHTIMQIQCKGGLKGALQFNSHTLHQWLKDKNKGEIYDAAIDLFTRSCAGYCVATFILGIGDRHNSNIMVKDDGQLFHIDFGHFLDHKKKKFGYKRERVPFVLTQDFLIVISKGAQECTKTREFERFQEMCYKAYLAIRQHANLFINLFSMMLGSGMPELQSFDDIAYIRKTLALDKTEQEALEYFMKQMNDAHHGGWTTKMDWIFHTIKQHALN
Sequence of PI3Kα (P27986 whole entry partner): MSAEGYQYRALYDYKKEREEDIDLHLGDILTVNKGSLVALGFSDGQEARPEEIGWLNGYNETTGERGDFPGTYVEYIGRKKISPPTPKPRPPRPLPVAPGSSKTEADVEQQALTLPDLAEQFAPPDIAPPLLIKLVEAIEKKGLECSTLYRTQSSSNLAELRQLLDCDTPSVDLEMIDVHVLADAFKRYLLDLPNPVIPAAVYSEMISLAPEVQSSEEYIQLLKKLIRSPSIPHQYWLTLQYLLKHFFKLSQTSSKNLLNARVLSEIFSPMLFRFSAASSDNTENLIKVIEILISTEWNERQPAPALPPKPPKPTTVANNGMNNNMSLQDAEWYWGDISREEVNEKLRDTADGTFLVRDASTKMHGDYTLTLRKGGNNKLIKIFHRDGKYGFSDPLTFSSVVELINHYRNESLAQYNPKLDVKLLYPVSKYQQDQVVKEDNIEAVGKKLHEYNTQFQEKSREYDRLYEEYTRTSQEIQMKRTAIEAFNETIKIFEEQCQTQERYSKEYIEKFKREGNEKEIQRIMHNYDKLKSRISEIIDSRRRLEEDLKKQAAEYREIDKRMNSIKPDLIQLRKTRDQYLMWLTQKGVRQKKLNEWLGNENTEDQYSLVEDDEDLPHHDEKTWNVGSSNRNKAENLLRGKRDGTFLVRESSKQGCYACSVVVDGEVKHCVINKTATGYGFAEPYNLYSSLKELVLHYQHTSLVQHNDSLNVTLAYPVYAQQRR

SMILES	IC50 (H1975 cells) [µM]	IC50 (MCF-7 cells) [µM]	IC50 (NCI-H460 cells) [µM]	IC50 (A549 cells) [µM]	IC50 (LO2 cells) [µM]	Selectivity IC50(LO2)/IC50(A549) (LO2 cells)	melting point [°C]	IC50 (PI3Kα) [µM]	IC50 (EGFR^T790M/L858R) [µM]	Selectivity (A549 vs LO2) relative to that of olmutinib (LO2 cells; fold of the selectivity of the lead compound olmutinib)
CC(C)=CC(=O)Nc1cccc(Oc2nc(-c3ccc(CN(C)C)s3)nc(N3CCOCC3)n2)c1 [Compound H11, N-(3-((4-(5-((dimethylamino)methyl)thiophen-2-yl)-6-morpholino-1,3,5-triazin-2-yl)oxy)phenyl)-3-methylbut-2-enamide]	5.57 ± 1.53	25.8 ± 1.31	19.7 ± 1.16	13.5 ± 1.13	> 100	>7.39	–	–	–	–
CCN(CC)Cc1ccc(-c2nc(Oc3cccc(NC(=O)C=C(C)C)c3)nc(N3CCOCC3)n2)s1 [Compound H15, N-(3-((4-(5-((diethylamino)methyl)thiophen-2-yl)-6-morpholino-1,3,5-triazin-2-yl)oxy)phenyl)-3-methylbut-2-enamide]	19.5 ± 1.55	38.5 ± 1.78	62.4 ± 2.94	21.4 ± 1.58	> 100	>4.68	215.2 to 217.1	–	–	–
C/C=C/C(=O)Nc1cccc(Oc2nc(-c3ccc(CN(CC)CC)s3)nc(N3CCOCC3)n2)c1 [Compound H14, (E)-N-(3-((4-(5-((diethylamino)methyl)thiophen-2-yl)-6-morpholino-1,3,5-triazin-2-yl)oxy)phenyl)but-2-enamide]	17.8 ± 1.34	41.6 ± 1.61	46.2 ± 1.43	20.6 ± 2.3	> 100	–	–	–	–	–
CCC/C=C/C(=O)Nc1cccc(Oc2cc(-c3cccs3)nc(Nc3cccc(C#N)c3)n2)c1 [Compound H4, (E)-N-(3-((2-((3-cyanophenyl)amino)-6-(thiophen-2-yl)pyrimidin-4-yl)oxy)phenyl)hex-2-enamide]	25.1 ± 1.3	27 ± 1.63	23.4 ± 1.49	37.1 ± 1.19	> 100	>2.70	209.6 to 211.4	–	–	–
C=C(C)C(=O)Nc1cccc(Oc2nc(-c3ccc(CN(CC)CC)s3)nc(N3CCOCC3)n2)c1 [Compound H13, N-(3-((4-(5-((diethylamino)methyl)thiophen-2-yl)-6-morpholino-1,3,5-triazin-2-yl)oxy)phenyl)methacrylamide]	21.5 ± 1.21	32.5 ± 1.73	54.5 ± 2.86	23.4 ± 1.89	> 100	–	–	–	–	–
C=CC(=O)Nc1cccc(Oc2nc(-c3ccc(CN(C)C)s3)nc(N3CCOCC3)n2)c1 [Compound H9, N-(3-((4-(5-((dimethylamino)methyl)thiophen-2-yl)-6-morpholino-1,3,5-triazin-2-yl)oxy)phenyl)acrylamide]	12.8 ± 1.25	53.9 ± 1.73	28.2 ± 1.78	23.5 ± 1.43	> 100	–	–	–	–	–
CC(C)/C=C/C(=O)Nc1cccc(Oc2nc(-c3ccc(CN(C)C)s3)nc(N3CCOCC3)n2)c1 [Compound H12, (E)-N-(3-((4-(5-((dimethylamino)methyl)thiophen-2-yl)-6-morpholino-1,3,5-triazin-2-yl)oxy)phenyl)-4-methylpent-2-enamide]	13.6 ± 1.94	64 ± 1.8	23.8 ± 2.05	21.9 ± 1.54	> 100	>4.57	199.7 to 201.3	–	–	–
C=C(F)C(=O)Nc1cccc(Oc2cc(-c3cccs3)nc(Nc3cccc(C#N)c3)n2)c1 [Compound H5, N-(3-((2-((3-cyanophenyl)amino)-6-(thiophen-2-yl)pyrimidin-4-yl)oxy)phenyl)-2-fluoroacrylamide]	> 100	> 100	> 100	> 100	> 100	–	222.9 to 226.8	–	–	–
C/C=C/C(=O)Nc1cccc(Oc2nc(-c3ccc(CN(C)C)s3)nc(N3CCOCC3)n2)c1 [Compound H10, (E)-N-(3-((4-(5-((dimethylamino)methyl)thiophen-2-yl)-6-morpholino-1,3,5-triazin-2-yl)oxy)phenyl)but-2-enamide]	1.16 ± 1.53	13.1 ± 1.36	10.7 ± 2.02	3.36 ± 1.59	> 100	>29.76	202.4 to 203.7	8.56	0.25	about 5 times
COc1cccc(Nc2nc(Oc3cccc(NC(=O)/C=C/C(C)C)c3)cc(-c3cccs3)n2)c1 [Compound H8, (E)-N-(3-((2-((3-methoxyphenyl)amino)-6-(thiophen-2-yl)pyrimidin-4-yl)oxy)phenyl)-4-methylpent-2-enamide]	21.5 ± 1.21	49.1 ± 2.13	24.1 ± 1.28	19 ± 1.34	> 100	>5.26	217.9 to 219.1	–	–	–
CCN(CC)Cc1ccc(-c2nc(Oc3cccc(NC(=O)/C=C/C(C)C)c3)nc(N3CCOCC3)n2)s1 [Compound H16, (E)-N-(3-((4-(5-((diethylamino)methyl)thiophen-2-yl)-6-morpholino-1,3,5-triazin-2-yl)oxy)phenyl)-4-methylpent-2-enamide]	15.6 ± 2.55	51.8 ± 1.27	30.3 ± 1.68	36.1 ± 1.61	> 100	>2.77	–	–	–	–
CC(C)=CC(=O)Nc1cccc(Oc2cc(-c3cccs3)nc(Nc3cccc(C#N)c3)n2)c1 [Compound H3, N-(3-((2-((3-cyanophenyl)amino)-6-(thiophen-2-yl)pyrimidin-4-yl)oxy)phenyl)-3-methylbut-2-enamide]	21.9 ± 1.33	35.8 ± 1.64	25.8 ± 1.38	27.7 ± 1.24	> 100	>3.61	215.5 to 218.7	–	–	–
C/C=C/C(=O)Nc1cccc(Oc2cc(-c3cccs3)nc(Nc3cccc(C#N)c3)n2)c1 [Compound H2, (E)-N-(3-((2-((3-cyanophenyl)amino)-6-(thiophen-2-yl)pyrimidin-4-yl)oxy)phenyl)but-2-enamide]	12.5 ± 1.09	14.6 ± 1.19	16.4 ± 0.98	10.5 ± 1.17	87.9 ± 1.67	8.38	201.2 to 205.9	–	–	–
C/C=C/C(=O)Nc1cccc(Oc2cc(-c3cccs3)nc(Nc3cccc(OC)c3)n2)c1 [Compound H7, (E)-N-(3-((2-((3-methoxyphenyl)amino)-6-(thiophen-2-yl)pyrimidin-4-yl)oxy)phenyl)but-2-enamide]	4.59 ± 0.46	19.2 ± 1.12	13.5 ± 0.52	4.37 ± 0.5	> 100	>22.88	231.7 to 234.3	> 10	0.63	–
CC(C)/C=C/C(=O)Nc1cccc(Oc2cc(-c3cccs3)nc(Nc3cccc(C#N)c3)n2)c1 [Compound H6, (E)-N-(3-((2-((3-cyanophenyl)amino)-6-(thiophen-2-yl)pyrimidin-4-yl)oxy)phenyl)-4-methylpent-2-enamide]	11.9 ± 1.11	17.7 ± 1.01	18.1 ± 0.71	15.6 ± 0.81	> 100	>6.43	223.1 to 225.4	–	–	–
C=CC(=O)Nc1cccc(Oc2cc(-c3cccs3)nc(Nc3cccc(C#N)c3)n2)c1 [Compound H1, N-(3-((2-((3-cyanophenyl)amino)-6-(thiophen-2-yl)pyrimidin-4-yl)oxy)phenyl)acrylamide]	9.64 ± 1.01	19 ± 1.71	13.1 ± 1.17	4.43 ± 0.5	> 100	>22.57	–	–	–	–
